In brackets after ≈: the same amount, converted by molar mass. Several values for one entry are separate records, joined by “and”; a condition that tells them apart may be missing. Equal entries are not always repeated. Where two headings read alike, the source gives them in different places.
Assays:
[1] = Selective cytotoxicity microculture assay, human renal carcinoma; conditions: human, SCI (selectively cytotoxicity index), GI50 (RPTEC)/GI50 (A-498)
[2] = tested on: human renal carcinoma cells (A-498); experiment: as above
[3] = tested on: normal human renal cells (RPTEC); experiment: Selective cytotoxicity microculture assay, normal human renal cells; assay type: cell-based
[4] = biological target: T1, 50:50 mixture of recombinant mouse PKCα and mouse PKCβ2; experiment: Protein Kinase C (PKC) screening assay; assay type: biochemical; conditions: Inhibition of Protein Kinase C
T1 construct: The enzymes are expressed in Sf9 insect cells from recombinant baculovirus and partially purified on DEAE-cellulose and Sephacryl 200 gel filtration
Text: The Protein Kinase C (PKC) screening assay utilized in the following experiments is similar to standard PKC assays used by many investigators. Its primary features are that 1) the assay utilizes a 50:50 mixture of recombinant mouse PKCα and mouse PKCβ2; 2) employs histone as phosphate-accepting substrate; and 3) the PKC enzymatic activity is activated with phosphatidylserine, TPA and low concentration of calcium, so that both calcium and TPA are somewhat limiting for the extent of activation. In this manner the assay is sensitive to inhibitors of PKC activation. A more detailed description of the assay is provided in the following paragraphs.
The recombinant PKC formulation is a mixture (equal parts by activity) of mouse PKCα and mouse PKCβ2. The enzymes are expressed in Sf9 insect cells from recombinant baculovirus and partially purified on DEAE-cellulose and Sephacryl 200 gel filtration. Sufficient PKC is added to each reaction to provide approximately 4 pmols phosphate transferred in 30 minute (per total reaction.) The reaction is linear over the time when 4 pmols of phosphate is transferred and the reaction remains linear well beyond this time frame.
The PKC screening assay is performed in 96 well polystyrene U bottom micro titer plates, in a total reaction volume of 50 ul. Solution manipulations are performed during the assay utilize a Rainin, motorized EDP-plus M8 eight-channel micropipettor.
In some cases 50% DMSO:water, water, or methanol is substituted (if essential) for the solvent. At least 25 μl of the highest concentration sample to be assayed is transferred to a well in a 96 well U-bottom polystyrene assay plate. Serial 5-fold or 10-fold dilutions (depending on the dose-range desired) are made using the EDP-plus M8 eight-channel pipettor in dilute mode and mixing by repipetting. Using the 8-channel pipettor, 2 μl of each dilution is transferred to the appropriate wells of the plate(s) to be used for each assay. Duplicate assays are performed for each dose, with each assay, allowing six wells (half the row) for three-dose assays, or 12 wells (the whole row) for six-dose assays. In general, extracts and fractions are assayed at three doses: 400, 40 an 4 ug/ml, while pure compounds are tested at six doses: 400, 80, 16, 3.2, 0.64, 0.128 ([…]).

[5] = tested on: ras-transformed human bronchial epithelial cells (TBE); experiment: Selective cytotoxicity microculture assay, ras-transformed bronchial epithelial cells; assay type: cell-based
[6] = Homo sapiens, A498, A-498 human renal carcinoma
[7] = Homo sapiens, Epithelial cell, read-out: GI50

| SMILES | selectivity ratio [1] | GI50 ([2]; A-498 human renal carcinoma) [ng/mL] | GI50 [2, 6] [ng/mL] | GI50 [3] | IC50 [4] | GI50 [5] [ng/mL] | GI50 [5, 7] [ng/mL] |
| --- | --- | --- | --- | --- | --- | --- | --- |
| OCc1ccc(-c2ccc(-c3ccc(CO)[se]3)s2)[se]1 [compound 676632] | > 1000 | 0.0002 (≈ 0.000497 nM) | 0.0003 (≈ 0.000746 nM) | 2 ng/mL and 0.3 ng/mL | 50 µg/mL (≈ 124000 nM) |  |  |
| OCc1ccc(-c2ccc(-c3ccc(CO)[se]3)[se]2)[se]1 [compound 675247] | > 1000 |  |  |  | 10 µg/mL (≈ 22300 nM) | 20000 (≈ 44500 nM) | 30000 (≈ 66800 nM) |
| OCc1ccc(-c2ccc(-c3ccc[se]3)[se]2)[se]1 [compound 675246] | > 1000 |  | 0.003 (≈ 0.00716 nM) |  | 3 × 10^0 μg/ml | 2 (≈ 4.77 nM) | 3 (≈ 7.16 nM) |
| OCc1ccc(-c2ccc(-c3ccc(CO)s3)[se]2)s1 [compound 675343] |  |  |  |  | 30 µg/mL (≈ 84400 nM) |  |  |
| OCc1ccc(-c2ccc(-c3ccc[se]3)s2)[se]1 [compound 676631] |  |  |  |  | 2 × 10^0 μg/ml |  |  |

— patent US20040063662A1, “Selenophene anti-tumor agents” (priority 1996, published 2004)
